Marks after values point to notes of the source that are not given here.
Legend:
[1] = Phase I trial combining PLD and trabectedin: MTD, safety, drug-related adverse events; type: in vivo, human
Description: (§1) A phase I trial combining PLD and trabectedin was performed. The objective of this study was to determine the maximum tolerated dose (MTD) of trabectidin in combination with PLD 30 mg/m^2 administered every 21 clays. Additional objectives were to evaluate the safety profile of this combination of drugs and to evaluate the pharmacokinetics of trabectidin and PDL when given in combination. The maximum tolerated dose (MTD) relates to the highest dose at which less than one third of the subjects in a dose-level cohort experienced dose-limiting toxicity (DLT).
(§2) We designed a dose finding trial with a fixed PLD dose of 30 mg/m^2 administered intravenously over one hour, followed immediately by one of six trabectedin doses (0.4, 0.6, 0.75, 0.9, 1.1, and 1.3 mg/m^2) administered intravenously over 3 hours. This treatment was repeated every 21 days.
Entry-criteria included normal liver function tests, limited prior, doxorubicin-exposure (dose less than 250 mg/m^2), normal cardiac function and Eastern Cooperative Oncology Group (ECOG) Performance Status (PS) score of 0 or 1.
Worst on-treatment drug related grade 3 and 4 toxicities have been minimal, limited to neutropenia and transaminases elevation. Tables 5a and 5b show the frequently reported drug-related Grade ¾ adverse events in least 5% of subjects. The adverse events reported at any time from first treatment dose up to 30 days after the last treatment dose are included. In order to define the toxicity grade, NCI common criteria are used.
In addition, Tables 6a and 6b show the drug-related serious adverse events reported.
Out of 18 subjects that discontinued treatment only one subject terminated treatment due to drug related adverse event (Tables 7a and 7b).

[2] = patients, infusion over 24-72 hr; cited from earlier work
[3] = system: sarcoma and breast and ovarian carcinoma; conditions: phase I, ET-743 alone; cited from earlier work
[4] = increase in plasma liver enzymes, cholangitis; cited from earlier work
[5] = system: cancer; assay: Phase I trial combining PLD and trabectedin: best overall response; type: in vivo, human; conditions: for Best Overall Response: SD (patients, tumour type): stable disease > 3 months
Description: as §1, §2
Thirty patients, 14 with sarcomas, 2 with ovarian cancer, 2 with pancreatic cancer, 2 with head and neck carcinoma, 1 with bladder cancer, 1 with breast cancer, 1 with gastric cancer, 1 with NSCLC, 1 with SCLC and 5 more with other types of cancers have been treated (Table 1).
Fourteen (14) additional patients (five with sarcoma, and one each carcinoid tumor, pancreatic, bladder, head and neck, thyroid, breast, gastric, SCLC and ovarian cancer) have had stable disease for > 3 months (Table 8a and 8b).

[6] = system: human tumour xenografts; conditions: xenografts including melanoma and ovarian and breast carcinoma; cited from earlier work
[7] = Phase I trial combining PLD and trabectedin: pharmacokinetics of trabectedin; type: in vivo, human; conditions: for AUC∞ / Cl / Cmax / T1/2: mean; for Impact of concomitant PLD on the pharmacokinetics of trabectedin: preliminary analysis, versus historical control data of trabectedin alone
Description: as §1, §2
Based on preliminary pharmacokinetic analysis, the values of trabectedin CL (systematic clearance after i.v. dose), t½ (half life) and Vss (apparent volume of distribution at steady state) are within the range observed when trabectedin is given alone (historical control data) (FIG. 1, Table 9),

[8] = Phase I dose escalation study of Doxorubicin (60 mg/m^2) in combination with ET-743; type: in vivo, human; conditions: in combination with Doxorubicin 60 mg/m^2, ET-743 over 3 hours
Description: The following figures indicate that the use of PLD in combination with ET-743, allows an escalated dose of ET-743 to be tolerated, in comparison to when Doxorubicin is used. A phase I dose escalation study of Doxorubicin (60 mg/m^2) in combination with ET-743, administered over 3 hours, could only support a ET-743 dose of 0.7 mg/m^2. In a Phase I dose escalation study of 30 mg/m^2 PLD in combination with ET-743 administered over 3 hours, ET-743 could be escalated to 1.1 mg/m^2.

[9] = high-dose dexamethasone pretreatment, female rat; cited from earlier work
[10] = ET743 0.4 mg/m^2 + PLD 30 mg/m^2, N = 3
[11] = ET743 0.6 mg/m^2 + PLD 30 mg/m^2, N = 3
[12] = ET743 0.75 mg/m^2 + PLD 30 mg/m^2, N = 3
[13] = ET743 0.9 mg/m^2 + PLD 30 mg/m^2, N = 3
[14] = ET743 1.1 mg/m^2 + PLD 30 mg/m^2, N = 12
[15] = ET743 1.3 mg/m^2 + PLD 30 mg/m^2, N = 6
[16] = Total, all ET743 dose levels + PLD 30 mg/m^2, N = 30
[17] = ET-743 0.9 mg/m^2 3 hours infusion after PLD 30 mg/m^2 1 hour infusion, N 3
[18] = ET-743 1.1 mg/m^2 3 hours infusion after PLD 30 mg/m^2 1 hour infusion, N 3
[19] = ET-743 1.3 mg/m^2 3 hours infusion after PLD 30 mg/m^2 1 hour infusion, N 2

COc1cc2c(cc1O)CCN[C@]21CS[C@@H]2c3c(OC(C)=O)c(C)c4c(c3[C@H](COC1=O)N1[C@@H]2[C@H]2c3c(cc(C)c(OC)c3O)C[C@@H]([C@@H]1O)N2C)OCO4 [ET743, Ecteinascidin 743]
Drug related serious adverse events, subjects: Nausea/Vomiting [1, 10]: 0 | Grade 3/4 drug-related AE, subjects: Allergic Reaction [1, 10]: 0 | Grade 3/4 drug-related AE, subjects: Liver and Biliary System [1, 10]: 0 | Grade 3/4 drug-related AE, subjects: Nausea [1, 10]: 0 | Grade 3/4 drug-related AE, subjects: Other [1, 10]: 0 | Grade 3/4 drug-related AE, subjects: Palmar-Plantar Erythrodysesthesia [1, 10]: 0 | Grade 3/4 drug-related AE, subjects: SGOT Increased [1, 10]: 0 | Grade 3/4 drug-related AE, subjects: SGPT Increased [1, 10]: 0 | Total no. subjects with Grade 3/4 drug-related AE [1, 10]: 0 | Total no. subjects with SAE (drug related serious adverse events) [1, 10]: 0 | Treatment termination, subjects: Death [1, 10]: 0 | Treatment termination, subjects: Drug-Related AE (hand-foot syndrome) [1, 10]: 0 | Drug related serious adverse events, subjects: Nausea/Vomiting [1, 11]: 0 | Grade 3/4 drug-related AE, subjects: Allergic Reaction [1, 11]: 0 | Grade 3/4 drug-related AE, subjects: Liver and Biliary System [1, 11]: 0 | Grade 3/4 drug-related AE, subjects: Nausea [1, 11]: 1 | Grade 3/4 drug-related AE, subjects: Other [1, 11]: 1 | Grade 3/4 drug-related AE, subjects: Palmar-Plantar Erythrodysesthesia [1, 11]: 0 | Grade 3/4 drug-related AE, subjects: SGOT Increased [1, 11]: 0 | Grade 3/4 drug-related AE, subjects: SGPT Increased [1, 11]: 0 | Total no. subjects with Grade 3/4 drug-related AE [1, 11]: 1 | Total no. subjects with SAE (drug related serious adverse events) [1, 11]: 0 | Treatment termination, subjects: Death [1, 11]: 0 | Treatment termination, subjects: Drug-Related AE (hand-foot syndrome) [1, 11]: 0 | Drug related serious adverse events, subjects: Nausea/Vomiting [1, 12]: 0 | Grade 3/4 drug-related AE, subjects: Allergic Reaction [1, 12]: 0 | Grade 3/4 drug-related AE, subjects: Liver and Biliary System [1, 12]: 0 | Grade 3/4 drug-related AE, subjects: Nausea [1, 12]: 0 | Grade 3/4 drug-related AE, subjects: Other [1, 12]: 0 | Grade 3/4 drug-related AE, subjects: Palmar-Plantar Erythrodysesthesia [1, 12]: 0 | Grade 3/4 drug-related AE, subjects: SGOT Increased [1, 12]: 0 | Grade 3/4 drug-related AE, subjects: SGPT Increased [1, 12]: 0 | Total no. subjects with Grade 3/4 drug-related AE [1, 12]: 0 | Total no. subjects with SAE (drug related serious adverse events) [1, 12]: 0 | Treatment termination, subjects: Death [1, 12]: 0 | Treatment termination, subjects: Drug-Related AE (hand-foot syndrome) [1, 12]: 0 | Drug related serious adverse events, subjects: Nausea/Vomiting [1, 13]: 0 | Grade 3/4 drug-related AE, subjects: Allergic Reaction [1, 13]: 0 | Grade 3/4 drug-related AE, subjects: Liver and Biliary System [1, 13]: 0 | Grade 3/4 drug-related AE, subjects: Nausea [1, 13]: 0 | Grade 3/4 drug-related AE, subjects: Other [1, 13]: 0 | Grade 3/4 drug-related AE, subjects: Palmar-Plantar Erythrodysesthesia [1, 13]: 0 | Grade 3/4 drug-related AE, subjects: SGOT Increased [1, 13]: 0 | Grade 3/4 drug-related AE, subjects: SGPT Increased [1, 13]: 0 | Total no. subjects with Grade 3/4 drug-related AE [1, 13]: 0 | Total no. subjects with SAE (drug related serious adverse events) [1, 13]: 0 | Treatment termination, subjects: Death [1, 13]: 0 | Treatment termination, subjects: Drug-Related AE (hand-foot syndrome) [1, 13]: 0 | Drug related serious adverse events, subjects: Nausea/Vomiting [1, 14]: 1 | Grade 3/4 drug-related AE, subjects: Allergic Reaction [1, 14]: 2 | Grade 3/4 drug-related AE, subjects: Liver and Biliary System [1, 14]: 6 | Grade 3/4 drug-related AE, subjects: Nausea [1, 14]: 1 | Grade 3/4 drug-related AE, subjects: Other [1, 14]: 4 | Grade 3/4 drug-related AE, subjects: Palmar-Plantar Erythrodysesthesia [1, 14]: 2 | Grade 3/4 drug-related AE, subjects: SGOT Increased [1, 14]: 1 | Grade 3/4 drug-related AE, subjects: SGPT Increased [1, 14]: 6 | Total no. subjects with Grade 3/4 drug-related AE [1, 14]: 10 | Total no. subjects with SAE (drug related serious adverse events) [1, 14]: 1 | Treatment termination, subjects: Death [1, 14]: 0 | Treatment termination, subjects: Drug-Related AE (hand-foot syndrome) [1, 14]: 1 | Drug related serious adverse events, subjects: Nausea/Vomiting [1, 15]: 0 | Grade 3/4 drug-related AE, subjects: Allergic Reaction [1, 15]: 0 | Grade 3/4 drug-related AE, subjects: Liver and Biliary System [1, 15]: 3 | Grade 3/4 drug-related AE, subjects: Nausea [1, 15]: 0 | Grade 3/4 drug-related AE, subjects: Other [1, 15]: 2 | Grade 3/4 drug-related AE, subjects: Palmar-Plantar Erythrodysesthesia [1, 15]: 2 | Grade 3/4 drug-related AE, subjects: SGOT Increased [1, 15]: 2* | Grade 3/4 drug-related AE, subjects: SGPT Increased [1, 15]: 3* | Total no. subjects with Grade 3/4 drug-related AE [1, 15]: 6 | Total no. subjects with SAE (drug related serious adverse events) [1, 15]: 0 | Treatment termination, subjects: Death [1, 15]: 1 | Treatment termination, subjects: Drug-Related AE (hand-foot syndrome) [1, 15]: 0 | Grade 3/4 drug-related AE, subjects: Allergic Reaction [1, 16]: 2 | Grade 3/4 drug-related AE, subjects: Liver and Biliary System [1, 16]: 9 | Grade 3/4 drug-related AE, subjects: Nausea [1, 16]: 2 | Grade 3/4 drug-related AE, subjects: Other [1, 16]: 7 | Grade 3/4 drug-related AE, subjects: Palmar-Plantar Erythrodysesthesia [1, 16]: 4 | Grade 3/4 drug-related AE, subjects: SGOT Increased [1, 16]: 3 | Grade 3/4 drug-related AE, subjects: SGPT Increased [1, 16]: 9 | Total no. subjects with Grade 3/4 drug-related AE [1, 16]: 17 | Total no. subjects with SAE (drug related serious adverse events) [1, 16]: 1 | Treatment termination, subjects: Death [1, 16]: 1 | Treatment termination, subjects: Drug-Related AE (hand-foot syndrome) [1, 16]: 1 | Tolerability of the combination ([1]; both drugs at full (or near full) therapeutic doses for prolonged periods): well tolerated | ET-743 dose reached in dose escalation ([1]; in combination with 30 mg/m^2 PLD, ET-743 over 3 hours): 1.1 mg/m^2 | maximum tolerated dose (MTD) ([1]; in combination with PLD 30 mg/m^2, every 21 days, ET-743 i.v. over 3 hours): 1.1 mg/m^2 | recommended dose of the combination treatment ([1]; plus 30 mg/m^2 of PLD): 1.1 mg/m^2 | side effects [2]: myelotoxic and hepatotoxic side effects | clinical responses [3]: promising responses were observed | acute toxicity finding [4]: liver toxicity as an important side effect | Best Overall Response: PR (patients, tumour type) [5, 10]: 1 Sarcoma | Treatment termination, subjects: Disease Progression [5, 10]: 2 | Best Overall Response: PR (patients, tumour type) [5, 11]: 0 | Treatment termination, subjects: Disease Progression [5, 11]: 1 | Best Overall Response: PR (patients, tumour type) [5, 12]: 0 | Treatment termination, subjects: Disease Progression [5, 12]: 2 | Best Overall Response: SD (patients, tumour type) [5, 12]: 1 Thyroid | Best Overall Response: PR (patients, tumour type) [5, 13]: 0 | Treatment termination, subjects: Disease Progression [5, 13]: 3 | Best Overall Response: SD (patients, tumour type) [5, 13]: 0 | Best Overall Response: PR (patients, tumour type) [5, 14]: 1 Sarcoma | Treatment termination, subjects: Disease Progression [5, 14]: 5 | Treatment termination, subjects: Disease Progression [5, 15]: 2 | Clinical benefit (measurable responses) ([5]; ET-743 together with PLD, soft tissue sarcoma, ovarian and head and neck cancer): measurable responses demonstrated evidence of clinical benefit | Treatment termination, subjects: Disease Progression [5, 16]: 15 | antineoplastic activity [6]: potent antineoplastic activity | AUC∞ [7, 17]: 39 ng·h/mL | Cl [7, 17]: 23 l/h/m2 | Cmax [7, 17]: 6 ng/mL | T1/2 [7, 17]: 93 h | AUC∞ [7, 18]: 42 ng·h/mL | Cl [7, 18]: 26 l/h/m2 | Cmax [7, 18]: 6 ng/mL | T1/2 [7, 18]: 65 h | AUC∞ [7, 19]: 31 ng·h/mL | Cl [7, 19]: 44 l/h/m2 | Cmax [7, 19]: 7 ng/mL | T1/2 [7, 19]: 47 h | Impact of concomitant PLD on the pharmacokinetics of trabectedin [7]: does not have an impact | Impact of concomitant PLD on the pharmacokinetics of trabectedin ([7]; listed as trabectidin): overtly not impacted | ET-743 dose that could be supported in dose escalation [8]: 0.7 mg/m^2

C[C@@H]1C[C@H]2[C@@H]3CCC4=CC(=O)C=C[C@]4(C)[C@@]3(F)[C@@H](O)C[C@]2(C)[C@@]1(O)C(=O)CO [dexamethasone]
effect of pretreatment on ET-743 hepatotoxicity [9]: abrogate ET-743-mediated hepatotoxicity

— US20090117176A1, “Anticancer Treatments” (Pharma Mar, S.A. Sociedad Unipersonal, priority 2004, published 2009)
